From US20260042769A1, “TRIARYL AGONISTS OF ALPHA-2 ADRENERGIC RECEPTORS” (ALCEPTOR THERAPEUTICS, INC., priority 2023, published 2026) come the findings set out here.

The target of this assay is T1, human ADRA2B receptor (Homo sapiens, UniProt P18089).
T1 construct: expressed in transfected cells
T1 sequence (P18089 1-450): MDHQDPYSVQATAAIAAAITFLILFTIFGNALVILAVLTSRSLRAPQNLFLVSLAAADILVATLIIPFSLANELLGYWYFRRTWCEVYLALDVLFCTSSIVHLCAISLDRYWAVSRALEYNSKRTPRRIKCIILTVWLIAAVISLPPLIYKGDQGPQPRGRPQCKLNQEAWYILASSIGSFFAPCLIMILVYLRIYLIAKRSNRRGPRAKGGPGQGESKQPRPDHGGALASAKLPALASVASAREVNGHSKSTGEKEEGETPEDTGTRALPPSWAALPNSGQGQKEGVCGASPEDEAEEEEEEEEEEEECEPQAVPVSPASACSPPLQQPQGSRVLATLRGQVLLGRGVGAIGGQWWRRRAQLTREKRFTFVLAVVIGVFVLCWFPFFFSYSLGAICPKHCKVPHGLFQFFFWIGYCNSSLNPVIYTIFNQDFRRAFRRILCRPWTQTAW
The experiment in a line: GTPγS agonist assay, ADRA2B receptor. Type of assay: biochemical. The following applies: read-out: GTPase - Human Alpha2B EC50. Here is the method:
GTP ? S Agonist Assays (ADRA2A, ADRA2B, and ADRA2C Receptors)
Membranes were prepared for GTP ? S binding assays from CHO-K1 cells stably expressing human ADRA2A, ADRA2B, or ADRA2C receptor. Briefly, cells were grown in 5-layer cell culture flasks. Cells were washed with 50 mL of PBS and then dissociated with 0.05% trypsin. Dissociated cells were then collected by centrifugation at 650×g for 8 min at 4° C. Pellets were washed again in PBS by centrifugation and resuspended in 30 mL of 20 mM HEPES, 10 mM EDTA, pH 7.4. After sitting on ice for 30 min, membranes were collected by centrifugation at 50000×g for 15 min at 4° C., resuspended in 30 mL of 20 mM HEPES, 0.1 mM EDTA, pH 7.4 and collected again by centrifugation. Pellets were then washed twice by centrifugation in 30 mL of 20 mM HEPES, pH 7.4, and stored at −80° C. until the day of the assay. On the day of the assay, pellets were thawed on ice and resuspended in 1 mL of 20 mM HEPES, pH 7.4, 10 mM MgCl2, 100 mM NaCl using dounce homogenization. Membrane protein concentration was determined by BCA protein assay (Promega, Madison, WI) according to Promega guidelines.
On the day of the assay, serial dilutions of test compounds were brought up in assay buffer (20 mM HEPES, 10 mM MgCl2, 200 mM NaCl) at 10× final assay concentration. 50 μL/well of membrane homogenates (containing 5 μg of membrane protein for ADRA2A, ADRA2B, or 7.5 μg for ADRA2C) were prepared in assay buffer supplemented with GDP at 2× final assay concentration (5 μM GDP) and dispensed into 96 well polypropylene, U-bottom Greiner plates. Then, 10 μL of compounds were added to assay plates and incubated for 10 min at room temperature. […] The binding reaction was incubated for 1 h at 37° C. Membranes in assay reactions were then transferred to GF/C filter plates (UniFilter, Perkin Elmer) and washed three times using a FilterMate Harvester (Perkin Elmer) with cold assay buffer containing no GDP. Filter plates were then dried at 40° C. overnight followed by the addition of 30 μL/well of Beta Plate Scintillation liquid. Plates were top and bottom sealed before being read on TopCount scintillation counter (Perkin Elmer, Waltham, MA).

As for `COc1cccc(C[C@H](c2cnc[nH]2)c2cccc(OC)c2C)n1` [Compound 26, 2-[(2S)-2-(1H-imidazol-4-yl)-2-(3-methoxy-2-methylphenyl)ethyl]-6-methoxypyridine], the EC50 lay within 50 to 500 nM. Consider `Cc1ccnc(C[C@@H](c2cnc[nH]2)c2cccc(C)c2C)n1` [Compound 79, 2-[(2R)-2-(2,3-dimethylphenyl)-2-(1H-imidazol-4-yl)ethyl]-4-methylpyrimidine], for which the EC50 fell in the range of 50 to 500 nM. `COc1cccc(CC(c2cnc[nH]2)c2cccc(OC)c2Cl)n1` (stereo not shown) [Compound 20, 2-[2-(2-chloro-3-methoxyphenyl)-2-(1H-imidazol-4-yl)ethyl]-6-methoxypyridine]: the concentration giving a half-maximal response (EC50) was less than 10 nM. For `Cc1cccc([C@@H](Cc2cnco2)c2c[nH]cn2)c1C` [Compound 365, 5-[(R)-2-(4-imidazolyl)-2-(2,3-xylyl)ethyl]-1,3-oxazole], the EC50 is more than 500 nM. On to `FC1(F)Oc2cccc([C@H](Cc3ccccn3)c3c[nH]cn3)c2O1` [Compound 122, 4-[(S)-1-(4-imidazolyl)-2-(2-pyridyl)ethyl]-2,2-difluoro-2H-1,3-benzodioxole], for which the EC50 was more than 500 nM. As for `Cc1cccc([C@@H](Cc2ccnn2C)c2c[nH]cn2)c1C` [Compound 130, 5-[(R)-2-(4-imidazolyl)-2-(2,3-xylyl)ethyl]-1-methyl-pyrazole], the 50% effective concentration (EC50) was less than 10 nM. For `c1ccc(C[C@@H](c2cnc[nH]2)c2cccc3c2COC3)nc1` [Compound 46, 2-[(2R)-2-(1,3-dihydro-2-benzofuran-4-yl)-2-(1H-imidazol-4-yl)ethyl] pyridine] the value was more than 500 nM; for `FC(F)Oc1cccc([C@@H](Cc2ccccn2)c2cnc[nH]2)c1` [Compound 38, 2-[(2R)-2-[3-(difluoromethoxy)phenyl]-2-(1H-imidazol-4-yl)ethyl]pyridine], more than 500 nM; for `Cc1nc(C[C@H](c2c[nH]cn2)c2cccc(C)c2C)cs1` [Compound 103, 4-[(S)-2-(4-imidazolyl)-2-(2,3-xylyl)ethyl]-2-methyl-1,3-thiazole], more than 500 nM. For `COc1cccc(CC(c2c[nH]cn2)c2cccc(C)c2Cl)n1` (stereo not shown) [Compound 28, 2-[2-(2-chloro-3-methylphenyl)-2-(1H-imidazol-4-yl)ethyl]-6-methoxypyridine] the value was less than 10 nM; for `Cc1cccc([C@H](Cc2ccccn2)c2cnc[nH]2)c1C` [Compound 51, 2-[(2S)-2-(2,3-dimethylphenyl)-2-(1H-imidazol-4-yl)ethyl] pyridine], 50 to 500 nM; for `Cc1cccc(C(Cc2ccncn2)c2cnc[nH]2)c1C` (stereo not shown) [Compound 92, 4-[2-(2,3-dimethylphenyl)-2-(1H-imidazol-4-yl)ethyl] pyrimidine], 10 to 50 nM. For `Cc1cnc(C[C@@H](c2cnc[nH]2)c2cccc(C)c2C)nc1` [Compound 75, 2-[(2R)-2-(2,3-dimethylphenyl)-2-(1H-imidazol-4-yl)ethyl]-5-methylpyrimidine] the value was 50 to 500 nM; for `COc1cccc(C[C@@H](c2cnc[nH]2)c2cccc3c2CCO3)n1` [Compound 19, 2-[(2R)-2-(2,3-dihydro-1-benzofuran-4-yl)-2-(1H-imidazol-4-yl)ethyl]-6-methoxypyridine], 10 to 50 nM; for `COc1nccc(CC(c2ccc(Cl)cc2)c2c[nH]cn2)n1` (stereo not shown) [Compound 159, 4-[2-(p-chlorophenyl)-2-(4-imidazolyl)ethyl]-2-methoxypyrimidine], 50 to 500 nM. Turning to `COc1cc(CC(c2c[nH]cn2)c2cccc3c2OCC3)nc(OC)n1` (stereo not shown) [Compound 335, 4-(2-(2,3-dihydrobenzofuran-7-yl)-2-(1H-imidazol-4-yl)ethyl)-2,6-dimethoxypyrimidine], the EC50 is less than 10 nM. For `Cc1cccc([C@@H](Cc2cccnn2)c2c[nH]cn2)c1F` [Compound 137, 3-[(R)-2-(2-fluoro-3-tolyl)-2-(4-imidazolyl)ethyl] pyridazine], the half-maximal effective concentration (EC50) is 50 to 500 nM. For `c1ccc(C[C@@H](c2c[nH]cn2)c2cccc3c2OCC3)nc1` [Compound 44, 2-[(2R)-2-(2,3-dihydro-1-benzofuran-7-yl)-2-(1H-imidazol-4-yl)ethyl] pyridine] the value was 10 to 50 nM; for `Cc1cccc([C@@H](Cc2ccon2)c2c[nH]cn2)c1C` [Compound 100, 3-[(R)-2-(4-imidazolyl)-2-(2,3-xylyl)ethyl] isoxazole], 10 to 50 nM. As for `Cc1cc(C[C@H](c2c[nH]cn2)c2cccc(C)c2C)no1` [Compound 136, 3-[(S)-2-(4-imidazolyl)-2-(2,3-xylyl)ethyl]-5-methyl-isoxazole], the EC50 was less than 10 nM. For `COc1cccc(C[C@H](c2c[nH]cn2)c2cccc(Cl)c2C)n1` [Compound 14, 2-[(2S)-2-(3-chloro-2-methylphenyl)-2-(1H-imidazol-4-yl)ethyl]-6-methoxypyridine] the value was 50 to 500 nM; for `Cc1cccc(C(Cc2c(C)noc2C)c2c[nH]cn2)c1C` (stereo not shown) [Compound 113, 4-[2-(4-imidazolyl)-2-(2,3-xylyl)ethyl]-3,5-dimethyl-isoxazole], 50 to 500 nM. For `Cc1cccc([C@@H](Cc2cccc(C(F)(F)F)n2)c2c[nH]cn2)c1C` [Compound 81, 2-[(2R)-2-(2,3-dimethylphenyl)-2-(1H-imidazol-4-yl)ethyl]-6-(trifluoromethyl) pyridine] the value was more than 500 nM; for `COc1nccc(CC(c2c[nH]cn2)c2cccc3c2cnn3C)n1` (stereo not shown) [Compound 194, 4-[1-(4-imidazolyl)-2-(2-methoxy-4-pyrimidinyl)ethyl]-1-methyl-1H-indazole], 10 to 50 nM. As for `COc1nccc(CC(c2c[nH]cn2)c2cccc(Cl)c2C#N)n1` (stereo not shown) [Compound 196, 6-chloro-2-[1-(4-imidazolyl)-2-(2-methoxy-4-pyrimidinyl)ethyl] benzonitrile], the half-maximal effective concentration (EC50) lay within 50 to 500 nM. For `Cc1cccc(C(Cc2ccnnc2)c2cnc[nH]2)c1C` (stereo not shown) [Compound 104, 4-[2-(4-imidazolyl)-2-(2,3-xylyl)ethyl] pyridazine] the value was more than 500 nM; for `Cc1cc(C[C@@H](c2cnc[nH]2)c2cccc(C)c2C)n(C)n1` [Compound 69, 5-[(2R)-2-(2,3-dimethylphenyl)-2-(1H-imidazol-4-yl)ethyl]-1,3-dimethyl-1H-pyrazole], less than 10 nM. Take `COc1ccc(C(Cc2cccnn2)c2c[nH]cn2)cc1` (stereo not shown) [Compound 222, 3-[2-(4-imidazolyl)-2-(p-methoxyphenyl)ethyl] pyridazine]: the EC50 is more than 500 nM. On to `COc1nccc(CC(c2ccc(C(F)(F)F)cc2)c2c[nH]cn2)n1` (stereo not shown) [Compound 199, 4-{2-(4-imidazolyl)-2-[p-(trifluoromethyl)phenyl]ethyl}-2-methoxypyrimidine], for which the EC50 was more than 500 nM. For `Cc1cncc(C[C@@H](c2cnc[nH]2)c2cccc(C)c2C)n1` [Compound 83, 2-[(2R)-2-(2,3-dimethylphenyl)-2-(1H-imidazol-4-yl)ethyl]-6-methylpyrazine] the value was less than 10 nM; for `COc1ccccc1[C@H](Cc1ccccn1)c1cnc[nH]1` [Compound 31, 2-[(2S)-2-(1H-imidazol-4-yl)-2-(2-methoxyphenyl)ethyl]pyridine], more than 500 nM; for `Cc1cccc([C@@H](Cc2cccnc2)c2cnc[nH]2)c1C` [Compound 59, 3-[(2R)-2-(2,3-dimethylphenyl)-2-(1H-imidazol-4-yl)ethyl] pyridine], less than 10 nM. Consider `FC1(F)Oc2cccc([C@@H](Cc3ccccn3)c3c[nH]cn3)c2O1` [Compound 121, 4-[(R)-1-(4-imidazolyl)-2-(2-pyridyl)ethyl]-2,2-difluoro-2H-1,3-benzodioxole], for which the EC50 lay in the range of 50 to 500 nM.

For the compound `Cc1cccc([C@H](Cc2cccc(C(F)(F)F)n2)c2c[nH]cn2)c1C` [Compound 80, 2-[(2S)-2-(2,3-dimethylphenyl)-2-(1H-imidazol-4-yl)ethyl]-6-(trifluoromethyl) pyridine], the EC50 was less than 10 nM.

Usually EC50 stands for the concentration giving half of the maximal effect.
